Test results as given in patent publication US20210403485A1, “PYRAZOLOPYRIMIDINE DERIVATIVE AS SELECTIVE TRK INHIBITOR” (SHANDONG LUYE PHARMACEUTICAL CO., LTD., priority 2018, published 2021).

Legend:
TrkC = target: T1, TrkC (Homo sapiens, UniProt Q16288); test: Kinase inhibitory activity (33P-ATP, filtration-binding method, Reaction Biology Corp.); assay type: biochemical; conditions: read-out: Half maximal inhibitory concentration IC50 for kinases, TrkC
T1 construct: purchased Reaction Biology Corp
Experimental: (§1) The mixture was incubated at room temperature for 20 minutes, added with ^33P-ATP at a certain concentration to start the reaction, and then incubated at room temperature for 120 minutes. Finally, the radioactivity of the reactant was detected by the filtration-binding method. The final kinase activity was expressed as the ratio of the remaining kinase activity in the test sample to the kinase activity of the DMSO control. The dose-response curves were fitted and IC50 values were calculated by GraphPad software.

TrkA-G595R = target: T2, TrkA-G595R (Homo sapiens, UniProt P04629, G595R); test: as above; assay type: biochemical; conditions: read-out: Half maximal inhibitory concentration IC50 for kinases, TrkA-G595R
T2 construct: purchased Reaction Biology Corp
Experimental: as §1

Ros1 = target: T3, Ros1 (Homo sapiens, UniProt P08922); test: as above; assay type: biochemical; conditions: read-out: Half maximal inhibitory concentration IC50 for kinases, Ros1
T3 construct: purchased Reaction Biology Corp
Experimental: as §1

TrkA = target: T4, TrkA (Homo sapiens, UniProt P04629); test: as above; assay type: biochemical; conditions: read-out: Half maximal inhibitory concentration IC50 for kinases, TrkA
T4 construct: purchased Reaction Biology Corp
Experimental: as §1

ALK = target: T5, ALK (Homo sapiens, UniProt Q9UM73); test: as above; assay type: biochemical; conditions: read-out: Half maximal inhibitory concentration IC50 for kinases, ALK
T5 construct: purchased Reaction Biology Corp
Experimental: as §1

TrkA-G667C = target: T6, TrkA-G667C (Homo sapiens, UniProt P04629, G667C); test: as above; assay type: biochemical; conditions: read-out: Half maximal inhibitory concentration IC50 for kinases, TrkA-G667C
T6 construct: purchased Reaction Biology Corp
Experimental: as §1

BaF3 ETV6-NTRK3-G623R = target: T7, BaF3 ETV6-NTRK3-G623R (Homo sapiens, UniProt Q16288, G623R, cells depend on it); test: Inhibitory activity against cell proliferation (CellTiter-Glo, 72 hours); assay type: cell-based; conditions: read-out: Half maximal inhibitory concentration IC50 of cells, BaF3 ETV6-NTRK3-G623R
T7 construct: fused on or other part: N-terminal part of ETV6 (TEL) as fusion partner (part of the key); P41212 (Transcription factor ETV6)
Experimental: (§2) Adenosine Triphosphate (ATP) is an energy carrier commonly used in various life activities in nature, and is the minimum unit for energy storage and transfer. The CellTiter-Glo™ cell viability assay kit uses luciferase as an assay agent, which requires the involvement of ATP in luminescence. The CellTiter-Glo™ reagent is added into cell culture medium to measure the luminescence value. The luminescence signal is directly proportional to the amount of ATP in the system, and the ATP is positively correlated with the number of viable cells. Therefore, the proliferation of cells can be detected by detecting the ATP content using the CellTiter-Glo kit. In this test, the cell lines used are Ba/F3 LMNA-NTRK1-WT, Ba/F3 LMNA-NTRK1-F589L, BaF3 LMNA-NTRK1-G595R, BaF3 LMNA-NTRK1-G667A, BaF3 ETV6-NTRK3-WT, BaF3 ETV6-NTRK3-G623R, and Ba/F3 SLC34A2-ROS1-WT stable cell strains, 5000 cells/well.
(§3) a) Cells in the logarithmic growth phase were collected and counted using a […]. The cell viability was detected by the trypan blue exclusion method, and the cell viability was kept over 90%.
(§4) b) The cell concentration was adjusted; 90 μL of the cell suspension was added to a 96-well plate.
c) Cells in the 96-well plate were incubated overnight at 37° C. with 5% CO2 and 95% humidity.
(§5) a) A 10-fold compound solution was prepared, with the highest concentration being 10 μM (a total of 9 concentrations, 3-fold dilution). 10 μL of compound solution was added to each well of a 96-well plate inoculated with cells, and three duplicate wells were set for each compound concentration.
b) The cells in the 96-well plate added with compound were incubated for 72 hours at 37° C. with 5% CO2 and 95% humidity, followed by the CTG (CellTiter-Glo) analysis.
(§6) a) The CTG reagent was thawed and the cell plate was equilibrated to room temperature for 30 minutes.
(§7) b) An equal volume of CTG solution was added to each well.
(§8) c) The plate was shaken on an orbital shaker for 5 minutes to lyse the cells.
(§9) d) The cell plate was placed at room temperature for 20 minutes to stabilize the luminescence signal.
(§10) e) The luminescence value was read.
(§11) The data were analyzed using GraphPad Prism 5.0 software, fitted with nonlinear S-curve regression to give dose-response curves, and IC50 values were calculated therefrom.

Ba/F3 LMNA-NTRK1-F589L = target: T8, Ba/F3 LMNA-NTRK1-F589L (Homo sapiens, UniProt P04629, F589L, cells depend on it); test: as above; assay type: cell-based; conditions: read-out: Half maximal inhibitory concentration IC50 of cells, Ba/F3 LMNA-NTRK1-F589L
T8 construct: fused on or other part: N-terminal part of LMNA as fusion partner (part of the key); P02545 (Prelamin-A/C)
Experimental: as §2, with “kit.” for “kit. In this test, the cell lines used are Ba/F3 LMNA-NTRK1-WT, Ba/F3 LMNA-NTRK1-F589L, BaF3 LMNA-NTRK1-G595R, BaF3 LMNA-NTRK1-G667A, BaF3 ETV6-NTRK3-WT, BaF3 ETV6-NTRK3-G623R, and Ba/F3 SLC34A2-ROS1-WT stable cell strains, 5000 cells/well.”
as §3, §4, §5, §6, §7, §8, §9, §10, §11

BaF3 LMNA-NTRK1-G667A = target: T9, BaF3 LMNA-NTRK1-G667A (Homo sapiens, UniProt P04629, G667A, cells depend on it); test: as above; assay type: cell-based; conditions: read-out: Half maximal inhibitory concentration IC50 of cells, BaF3 LMNA-NTRK1-G667A
T9 construct: fused on or other part: N-terminal part of LMNA as fusion partner (part of the key); P02545 (Prelamin-A/C)
Experimental: as §2, with “kit.” for “kit. In this test, the cell lines used are Ba/F3 LMNA-NTRK1-WT, Ba/F3 LMNA-NTRK1-F589L, BaF3 LMNA-NTRK1-G595R, BaF3 LMNA-NTRK1-G667A, BaF3 ETV6-NTRK3-WT, BaF3 ETV6-NTRK3-G623R, and Ba/F3 SLC34A2-ROS1-WT stable cell strains, 5000 cells/well.”
as §3, §4, §5, §6, §7, §8, §9, §10, §11

BaF3 ETV6-NTRK3-WT = target: T10, BaF3 ETV6-NTRK3-WT (Homo sapiens, UniProt Q16288); test: as above; assay type: cell-based; conditions: read-out: Half maximal inhibitory concentration IC50 of cells, BaF3 ETV6-NTRK3-WT
T10 construct: fused on or other part: N-terminal part of ETV6 (TEL) as fusion partner (part of the key); P41212 (Transcription factor ETV6)
Experimental: as §2, with “kit.” for “kit. In this test, the cell lines used are Ba/F3 LMNA-NTRK1-WT, Ba/F3 LMNA-NTRK1-F589L, BaF3 LMNA-NTRK1-G595R, BaF3 LMNA-NTRK1-G667A, BaF3 ETV6-NTRK3-WT, BaF3 ETV6-NTRK3-G623R, and Ba/F3 SLC34A2-ROS1-WT stable cell strains, 5000 cells/well.”
as §3, §4, §5, §6, §7, §8, §9, §10, §11

Ba/F3 SLC34A2-ROS1-WT = target: T11, Ba/F3 SLC34A2-ROS1-WT (Homo sapiens, UniProt P08922); test: as above; assay type: cell-based; conditions: read-out: Half maximal inhibitory concentration IC50 of cells, Ba/F3 SLC34A2-ROS1-WT
T11 construct: fused on or other part: N-terminal part of SLC34A2 as fusion partner (part of the key); O95436 (Sodium-dependent phosphate transport protein 2B)
Experimental: as §2, with “kit.” for “kit. In this test, the cell lines used are Ba/F3 LMNA-NTRK1-WT, Ba/F3 LMNA-NTRK1-F589L, BaF3 LMNA-NTRK1-G595R, BaF3 LMNA-NTRK1-G667A, BaF3 ETV6-NTRK3-WT, BaF3 ETV6-NTRK3-G623R, and Ba/F3 SLC34A2-ROS1-WT stable cell strains, 5000 cells/well.”
as §3, §4, §5, §6, §7, §8, §9, §10, §11

BaF3 LMNA-NTRK1-G595R = target: T12, BaF3 LMNA-NTRK1-G595R (Homo sapiens, UniProt P04629, G595R, cells depend on it); test: as above; assay type: cell-based; conditions: read-out: Half maximal inhibitory concentration IC50 of cells, BaF3 LMNA-NTRK1-G595R
T12 construct: fused on or other part: N-terminal part of LMNA as fusion partner (part of the key); P02545 (Prelamin-A/C)
Experimental: as §2, with “kit.” for “kit. In this test, the cell lines used are Ba/F3 LMNA-NTRK1-WT, Ba/F3 LMNA-NTRK1-F589L, BaF3 LMNA-NTRK1-G595R, BaF3 LMNA-NTRK1-G667A, BaF3 ETV6-NTRK3-WT, BaF3 ETV6-NTRK3-G623R, and Ba/F3 SLC34A2-ROS1-WT stable cell strains, 5000 cells/well.”
as §3, §4, §5, §6, §7, §8, §9, §10, §11

Ba/F3 LMNA-NTRK1-WT = target: T13, Ba/F3 LMNA-NTRK1-WT (Homo sapiens, UniProt P04629); test: as above; assay type: cell-based; conditions: read-out: Half maximal inhibitory concentration IC50 of cells, Ba/F3 LMNA-NTRK1-WT
T13 construct: fused on or other part: N-terminal part of LMNA as fusion partner (part of the key); P02545 (Prelamin-A/C)
Experimental: as §2, with “kit.” for “kit. In this test, the cell lines used are Ba/F3 LMNA-NTRK1-WT, Ba/F3 LMNA-NTRK1-F589L, BaF3 LMNA-NTRK1-G595R, BaF3 LMNA-NTRK1-G667A, BaF3 ETV6-NTRK3-WT, BaF3 ETV6-NTRK3-G623R, and Ba/F3 SLC34A2-ROS1-WT stable cell strains, 5000 cells/well.”
as §3, §4, §5, §6, §7, §8, §9, §10, §11

[1] = Pharmacokinetic test of compounds in rats (plasma, LC/MS/MS); assay type: in vivo, male SD rats; conditions: for Cmax: read-out: Peak concentration Cmax
Experimental: Experimental purpose: male SD rats aged 7-9 weeks were selected as test animals, and the drug concentrations of the compounds in plasma at different time points after single intravenous injection (IV) and intragastric administration (PO) of the compounds were measured by an LC/MS/MS method, so that the pharmacokinetic behavior of the compounds disclosed herein in rats was studied, and the pharmacokinetic characteristic of the compounds was evaluated.
Drug preparation: the compounds were all prepared into clear solution by taking 5% DMSO+10% solutol+85% water as vehicle, and were used for administration in IV and PO groups. The dose of each compound administered was: IV, 3 mg/kg; PO, 10 mg/kg.

T5 sequence (Q9UM73 19-1620): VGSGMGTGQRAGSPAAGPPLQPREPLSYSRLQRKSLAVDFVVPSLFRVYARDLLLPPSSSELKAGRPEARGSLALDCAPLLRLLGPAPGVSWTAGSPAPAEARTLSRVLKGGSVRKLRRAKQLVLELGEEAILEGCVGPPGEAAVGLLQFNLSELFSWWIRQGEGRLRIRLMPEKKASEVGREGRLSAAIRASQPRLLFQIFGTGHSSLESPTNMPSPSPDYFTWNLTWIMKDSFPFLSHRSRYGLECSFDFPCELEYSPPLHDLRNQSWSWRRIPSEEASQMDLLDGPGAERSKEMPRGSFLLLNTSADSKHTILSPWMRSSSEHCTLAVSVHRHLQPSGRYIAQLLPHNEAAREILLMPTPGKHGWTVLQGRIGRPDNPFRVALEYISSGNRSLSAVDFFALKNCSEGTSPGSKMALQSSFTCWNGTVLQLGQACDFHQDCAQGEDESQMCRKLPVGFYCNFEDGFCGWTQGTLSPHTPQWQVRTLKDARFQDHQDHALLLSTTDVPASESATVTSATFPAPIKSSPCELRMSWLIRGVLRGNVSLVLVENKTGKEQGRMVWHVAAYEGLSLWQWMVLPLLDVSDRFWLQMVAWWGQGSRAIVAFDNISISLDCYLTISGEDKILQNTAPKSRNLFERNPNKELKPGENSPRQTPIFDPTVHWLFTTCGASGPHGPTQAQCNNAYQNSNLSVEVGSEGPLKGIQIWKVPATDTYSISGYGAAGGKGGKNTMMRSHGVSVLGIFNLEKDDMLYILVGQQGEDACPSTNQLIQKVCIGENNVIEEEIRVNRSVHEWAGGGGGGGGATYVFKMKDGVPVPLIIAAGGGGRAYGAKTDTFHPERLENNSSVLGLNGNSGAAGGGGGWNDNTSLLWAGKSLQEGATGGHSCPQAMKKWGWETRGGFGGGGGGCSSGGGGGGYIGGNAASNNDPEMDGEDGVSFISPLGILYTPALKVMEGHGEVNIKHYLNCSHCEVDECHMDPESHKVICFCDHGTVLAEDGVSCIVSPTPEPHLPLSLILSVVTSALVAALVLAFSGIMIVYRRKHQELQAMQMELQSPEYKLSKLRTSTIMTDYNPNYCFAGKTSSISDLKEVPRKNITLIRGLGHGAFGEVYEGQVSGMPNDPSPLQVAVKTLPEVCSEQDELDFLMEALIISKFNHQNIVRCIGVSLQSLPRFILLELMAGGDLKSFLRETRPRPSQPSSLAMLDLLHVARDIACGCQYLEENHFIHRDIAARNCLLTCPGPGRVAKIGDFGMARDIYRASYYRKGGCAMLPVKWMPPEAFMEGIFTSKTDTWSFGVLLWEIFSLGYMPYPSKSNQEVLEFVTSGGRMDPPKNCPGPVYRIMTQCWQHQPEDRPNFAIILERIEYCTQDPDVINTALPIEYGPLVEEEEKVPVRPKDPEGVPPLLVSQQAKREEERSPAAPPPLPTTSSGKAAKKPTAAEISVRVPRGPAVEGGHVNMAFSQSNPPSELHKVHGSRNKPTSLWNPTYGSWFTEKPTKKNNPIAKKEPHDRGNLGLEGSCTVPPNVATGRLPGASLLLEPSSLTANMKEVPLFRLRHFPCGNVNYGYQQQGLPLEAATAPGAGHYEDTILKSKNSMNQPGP
T9 sequence (P04629 whole entry G667A, the tested form may be a part): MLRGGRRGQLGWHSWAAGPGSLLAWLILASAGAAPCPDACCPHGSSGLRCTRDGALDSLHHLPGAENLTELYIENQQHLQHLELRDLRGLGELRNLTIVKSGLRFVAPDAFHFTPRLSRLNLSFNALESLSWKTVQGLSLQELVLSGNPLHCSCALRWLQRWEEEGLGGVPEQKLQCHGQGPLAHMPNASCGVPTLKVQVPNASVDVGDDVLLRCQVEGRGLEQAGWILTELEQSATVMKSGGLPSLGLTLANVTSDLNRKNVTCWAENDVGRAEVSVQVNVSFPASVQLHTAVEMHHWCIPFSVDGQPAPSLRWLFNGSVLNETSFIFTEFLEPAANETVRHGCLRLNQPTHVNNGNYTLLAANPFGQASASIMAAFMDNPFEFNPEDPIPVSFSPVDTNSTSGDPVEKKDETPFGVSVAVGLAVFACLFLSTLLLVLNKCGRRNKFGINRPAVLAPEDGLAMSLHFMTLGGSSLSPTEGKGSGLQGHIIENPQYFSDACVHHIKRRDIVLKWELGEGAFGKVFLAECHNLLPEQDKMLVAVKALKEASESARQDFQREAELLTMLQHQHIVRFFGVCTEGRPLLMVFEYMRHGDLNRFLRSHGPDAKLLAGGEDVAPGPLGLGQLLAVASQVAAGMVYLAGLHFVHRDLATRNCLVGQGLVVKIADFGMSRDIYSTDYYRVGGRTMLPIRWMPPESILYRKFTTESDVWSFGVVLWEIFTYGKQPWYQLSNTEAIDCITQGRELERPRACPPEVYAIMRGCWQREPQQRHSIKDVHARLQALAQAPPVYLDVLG
T6 sequence (P04629 33-796 G667C): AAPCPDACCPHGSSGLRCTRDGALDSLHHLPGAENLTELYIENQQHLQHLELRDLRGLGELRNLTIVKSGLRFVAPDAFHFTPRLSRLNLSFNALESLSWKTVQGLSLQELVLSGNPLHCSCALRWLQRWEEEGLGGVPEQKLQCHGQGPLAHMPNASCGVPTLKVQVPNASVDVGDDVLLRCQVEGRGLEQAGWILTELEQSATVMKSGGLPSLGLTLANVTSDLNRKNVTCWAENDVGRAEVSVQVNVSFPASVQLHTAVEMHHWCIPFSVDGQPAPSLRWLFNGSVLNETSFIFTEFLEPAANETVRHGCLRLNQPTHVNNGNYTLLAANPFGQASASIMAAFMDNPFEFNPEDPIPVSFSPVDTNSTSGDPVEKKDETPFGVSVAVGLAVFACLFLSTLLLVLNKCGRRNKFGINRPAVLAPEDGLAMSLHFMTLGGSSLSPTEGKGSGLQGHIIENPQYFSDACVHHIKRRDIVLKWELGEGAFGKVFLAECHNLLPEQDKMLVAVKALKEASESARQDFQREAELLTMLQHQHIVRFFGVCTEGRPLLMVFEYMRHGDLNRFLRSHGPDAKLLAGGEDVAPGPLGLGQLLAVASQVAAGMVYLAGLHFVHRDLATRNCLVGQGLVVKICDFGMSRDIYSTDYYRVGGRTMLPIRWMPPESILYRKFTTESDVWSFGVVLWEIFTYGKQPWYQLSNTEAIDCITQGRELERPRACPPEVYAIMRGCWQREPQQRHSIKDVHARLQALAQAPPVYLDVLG
T8 sequence (P04629 whole entry F589L, the tested form may be a part): as the sequence (P04629 whole entry G667A, the tested form may be a part) above, with F589L, A667G counted along it
T2 sequence (P04629 33-796 G595R): as the sequence (P04629 33-796 G667C) above, with G563R, C635G counted along it

Compound	IC50 (TrkC) [nM]	IC50 (TrkA-G595R) [nM]	IC50 (Ros1) [nM]	IC50 (TrkA) [nM]	IC50 (ALK) [nM]	IC50 (TrkA-G667C) [nM]	GI50 (BaF3 ETV6-NTRK3-G623R) [nM]	GI50 (Ba/F3 LMNA-NTRK1-F589L) [nM]	GI50 (BaF3 LMNA-NTRK1-G667A) [nM]	GI50 (BaF3 ETV6-NTRK3-WT) [nM]	GI50 (Ba/F3 SLC34A2-ROS1-WT) [nM]	GI50 (BaF3 LMNA-NTRK1-G595R) [nM]	GI50 (Ba/F3 LMNA-NTRK1-WT) [nM]	Apparent clearance Cl ([1]; IV, 3 mg/kg) [mL/min/kg]	Apparent volume of distribution Vd ([1]; IV, 3 mg/kg) [L/kg]	Area under the curve AUC0-last ([1]; IV, 3 mg/kg) [µM·h]	Half-life T1/2 ([1]; IV, 3 mg/kg) [min]	Area under the curve AUC0-last ([1]; PO, 10 mg/kg) [µM·h]	Bioavailability F % ([1]; PO, 10 mg/kg) [%]	Time to peak Tmax ([1]; PO, 10 mg/kg) [min]	other results
C[C@@H]1COc2ncc(F)cc2[C@H]2COC[C@@H](C)N2c2ccn3ncc(c3n2)C(=O)N1 [WX006]	0.1	0.3	4.8	0.7	> 1000	0.1	14.2	189	2	3.2	900	8.4	1.5	32.9	1.3	3.818	36	6.637	53	30	Cmax ([1]; PO, 10 mg/kg): 3750 nM
C[C@@H]1COC[C@@H]2c3cc(F)cnc3O[C@@H](C)CNC(=O)c3cnn4ccc(nc34)N12 [WX008]	0.1	0.2	12.8	0.7	> 1000	0.1	8.6	204	2	1.8	> 1000	5	1.6	44.0	1.4	2.748	30	2.282	25	30	Cmax ([1]; PO, 10 mg/kg): 1130 nM
O=C1NC2(CC2)COc2ncc(F)cc2[C@H]2CCOCCN2c2ccn3ncc1c3n2 [WX009A]	0.1	0.9	0.1	1.8	51.3	2.9	12.9	15.8	7.3	2.2	50	7.4	1	19.0	1.3	6.19	54	9.696	49	78	Cmax ([1]; PO, 10 mg/kg): 2630 nM
